Legend:
[1] = test system: Peripheral Blood Mononuclear Cells (PBMCs); assay: LPS-stimulated PBMC TNFα release assay; type: cell-based; settings: IC50 classes; human PBMC, LPS 10 ng/ml, 18 h; read-out: LPS-stimulated PBMC TNFα release inhibition
In short: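 Human PBMCs from healthy donors, adhered 3 h in serum-free RPMI, received compound for 1 h in 1% FBS medium before 10 ng/ml LPS for 18 h. Supernatant TNFα was measured by MSD; IC50 from percentage inhibition of control release, at least three separate experiments.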

[2] = biological target: T1, p38alpha (Homo sapiens, UniProt Q16539); assay: P38alpha enzyme inhibition assay (Alphascreen kinase activity assay); type: biochemical; settings: IC50 classes; 2 hours preincubation at 25° C., 250 μM ATP; read-out: p38α inhibition
T1 construct: purchased Invitrogen PV3304
In short: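 p38alpha with 0.3 μg/ml ATF-2 fusion protein in HEPES pH 7.5 buffer (10 mM MgCl2, 2 mM DTT, 1% DMSO); compounds preincubated 2 h at 25° C, then 250 μM ATP added for 1 h at 25° C. Phospho-ATF2 detected by AlphaScreen luminescence with anti-phospho-ATF2 antibody; IC50 from concentration-response curves.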

[3] = test system: BEAS-2B cells; assay: TNFα-stimulated BEAS-2B IL-8 release assay; type: cell-based; settings: Homo sapiens, IC50 classes, TNF-α 10 ng/ml, 18 h, read-out: TNFα-stimulated BEAS-2B IL-8 release inhibition
In short: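 BEAS-2B cells at 80-90% confluence were pre-incubated 1 h with p38 inhibitors, then stimulated 18 h at 37 °C with TNF-α (10 ng/ml). Supernatant IL-8 was measured by ELISA. IC50 was taken from sigmoidal variable-slope fits of % inhibition of control release.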

T1 sequence (Q16539 whole entry): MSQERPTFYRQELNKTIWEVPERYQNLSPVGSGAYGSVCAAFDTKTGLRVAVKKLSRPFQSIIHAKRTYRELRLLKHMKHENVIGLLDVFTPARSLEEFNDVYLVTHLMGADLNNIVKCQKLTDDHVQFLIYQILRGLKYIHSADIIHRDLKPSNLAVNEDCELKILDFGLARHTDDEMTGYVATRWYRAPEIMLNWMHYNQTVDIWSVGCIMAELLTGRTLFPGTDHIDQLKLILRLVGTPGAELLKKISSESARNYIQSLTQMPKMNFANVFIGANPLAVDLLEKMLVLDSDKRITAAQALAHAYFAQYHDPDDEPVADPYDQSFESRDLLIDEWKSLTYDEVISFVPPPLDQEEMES

Row | IC50 [2] [nM] | SMILES | IC50 [1] [nM] | IC50 [3] [nM]
1 | < 1 | CN1CCC[C@@]1(C)c1nnc2ccc(O[C@@H]3CC[C@H](NC(=O)Nc4cc(CN(CCO)CCO)cc(C(C)(C)C)c4)c4ccccc43)cn12 [Example 75, 1-(3-{[Bis-(2-hydroxy-ethyl)-amino]-methyl}-5-tert-butyl-phenyl)-3-{(1S,4R)-4-[3-((S)-1,2-dimethyl-pyrrolidin-2-yl)-[1,2,4]triazolo[4,3-a]pyridin-6-yloxy]-1,2,3,4-tetrahydro-naphthalen-1-yl}-urea] | 1 to 5 | > 1
2 | < 1 | C[C@H]1CCCCN1c1nnc2ccc(O[C@@H]3CC[C@H](NC(=O)Nc4cc(CN(CCO)CCO)cc(C(C)(C)C)c4)c4ccccc43)cn12 [Example 76, 1-(3-{[Bis-(2-hydroxy-ethyl)-amino]-methyl}-5-tert-butyl-phenyl)-3-{(1S,4R)-4-[3-((S)-2-methyl-piperidin-1-yl)-[1,2,4]triazolo[4,3-a]pyridin-6-yloxy]-1,2,3,4-tetrahydro-naphthalen-1-yl}-urea] | 1 to 5 | > 1

Source: US10100050B2 (CHIESI FARMACEUTICI S.P.A., priority 2015, dated 2018)
